# Values quoted from earlier work in patent publication US20040116351A1, “Method for enhancing the natural reward system for exercise” (FAST BALANCE, INC., priority 2002, published 2004).
# Conditions: administered PEA
compound,measurement,value
"NCCc1ccccc1 [PEA, phenylethylamine]",Time PEA lasts in the body,≤ 10 min
